Experimental data published in US9000027B2, “Chk1 suppresses a caspase-2 apoptotic response to DNA damage that bypasses p53, bcl-2 and caspase-3” (Dana-Farber Cancer Institute, Inc., priority 2008, dated 2015).

Tests used:
[1] = tested on: HeLa cells; assay: Clonogenic survival assay after IR; format: cell-based, human; conditions: Gö6976 500 nM from 24 hbIR
Protocol: Clonogenic assays were performed as described (Franken et al., 2006). Briefly, the cells were plated in 6-cm dishes, treated with Gö6976 followed by IR and cultured for 2 weeks. The medium was then removed, and the cells were rinsed by PBS and incubated with a mixture of 6.0% glutaraldehyde and 0.5% crystal violet (Sigma-Aldrich, St Louis, Mo., USA) for 30 min at room temperature. The dishes were washed with water, and colonies consisting of at least 50 cells were counted.

[2] = tested on: p53^+/+ embryos; assay: Drug toxicity: AO reactivity and development of inhibitor-treated, non-irradiated p53+/+ embryos; format: in vivo, zebrafish; conditions: 0 Gy
Source text: Chk1 inhibitors hold considerable promise in cancer therapy, as they are expected to synergize with genotoxic agents to kill tumor cells lacking functional p53, without affecting normal cells (Kawabe, 2004; Zhou and Bartek, 2004). […] Gö6976 has not been tested in vivo in a vertebrate model system. We therefore evaluated it as well as specific Chk2 and ATM inhibitors in the zebrafish system. Drug toxicity was monitored by scoring the AO reactivity of inhibitor-treated, but non-irradiated, p53^+/+ embryos (left column in FIG. 8A). Unless otherwise indicated, the inhibitors were applied at 18 hpf (that is, immediately before IR) for a total of 6 hours.
Immediately before IR, 18-hpf embryos were dechorionated and transferred to fresh egg water containing 1% DMSO, with or without the following inhibitors at indicated final concentrations: KU55933 (10 μM; Sigma) (Hickson et al., 2004); Chk2 Inhibitor II (10 μM; Calbiochem) (Arienti et al., 2005); Gö6976 (1 μM; Calbiochem) (Kohn et al., 2003). Unless stated otherwise, embryos were exposed to the inhibitors for 6 hr, transferred to fresh egg water, rinsed five times for 5 min, and labeled with AO. For experiments with Tg(rag2:EGFP-bcl-2) larvae, larvae were incubated in the inhibitor solution at 4 dpf, irradiated at 5 dpf, rinsed at 6 dpf, incubated in fresh inhibitor for an additional 72 hr, and mounted live at 9 dpf for fluorescence microscopic analysis of EGFP expression.

## Cn1c2ccccc2c2c3c(c4c5ccccc5n(CCC#N)c4c21)CNC3=O [Gö6976]
[1]; 2 Gy
  clonogenic radiosensitization: inability of Gö6976 to significantly radiosensitize the cells
[1]; 3.2 Gy, colonies counted 14 dpIR
  reduction in number of colonies: 50%
[2]; p53+/+
  long-term development of non-irradiated treated embryos: developed into normal adults without overt signs of spontaneous tumorigenesis or other pathologies
[2]; Gö6976 1 μM, KU55933 10 μM, Chk2 Inhibitor II 10 μM
  toxicity of the dose used (AO reactivity of non-irradiated embryos): non-toxic
